{
  "source": "patent US20240226120A1",
  "about": "(priority 2020, published 2024)",
  "key": {"[1]": {"tested_on": "HEK293 (human embryonic kidney) cells expressing the viral Orf10 protein", "format": "cell-based"}, "[2]": {"tested_on": "HEK293 (human embryonic kidney) cells expressing the viral Orf8 protein", "format": "cell-based"}, "[3]": {"tested_on": "HEK293 (human embryonic kidney) cells expressing the viral M protein", "test": "BrdU incorporation colorimetric ELISA, cells expressing viral M protein", "format": "cell-based", "conditions": "1 μM, 24 hours, not normalized to cell number (FIG. 5)"}, "[4]": {"tested_on": "HEK293 (human embryonic kidney) cells transfected with control plasmid pCMV-3Tag-3A", "test": "Apoptosis assay (pSIVA early, propidium iodide late), control plasmid", "format": "cell-based", "conditions": "24 hours, normalized to crystal violet", "text": "(§1) 2. […] These transfections are done in duplicate."}, "[5]": {"tested_on": "HEK293 (human embryonic kidney) cells transfected with plasmid expressing viral protein ORF8", "test": "Apoptosis assay (pSIVA early, propidium iodide late), ORF8", "format": "cell-based", "conditions": "ORF8, 24 hours", "text": "as §1"}, "[6]": {"tested_on": "HEK293 (human embryonic kidney) cells transfected with plasmid expressing M protein", "test": "Apoptosis assay (pSIVA early, propidium iodide late), M protein", "format": "cell-based", "text": "as §1"}, "[7]": {"tested_on": "interferon and interferon-induced antiviral effector gene expression in cells expressing M-protein", "test": "qPCR of interferons and effector gene expression, M-protein", "format": "cell-based, human"}, "Type I interferons": {"tested_on": "Type I interferons", "test": "Interferon types after CBD treatment, summary over transfections", "format": "cell-based, human", "conditions": "summary statement, transfection not specified"}, "[8]": {"tested_on": "metabolically dysregulated cells", "test": "Inhouse work on cell death, metabolically dysregulated cells (unpublished data)", "format": "cell-based"}, "normal cells": {"tested_on": "normal cells", "test": "Inhouse work on cell death, normal cells (unpublished data)", "format": "cell-based"}, "HT22 hippocampal neurons": {"tested_on": "HT22 hippocampal neurons", "conditions": "5 μM CBD, oxygen-glucose deprivation; cited from earlier work"}, "CB2 receptor": {"biological_target": "CB2 receptor (Homo sapiens, UniProt P34972)", "sequence (P34972 whole entry)": "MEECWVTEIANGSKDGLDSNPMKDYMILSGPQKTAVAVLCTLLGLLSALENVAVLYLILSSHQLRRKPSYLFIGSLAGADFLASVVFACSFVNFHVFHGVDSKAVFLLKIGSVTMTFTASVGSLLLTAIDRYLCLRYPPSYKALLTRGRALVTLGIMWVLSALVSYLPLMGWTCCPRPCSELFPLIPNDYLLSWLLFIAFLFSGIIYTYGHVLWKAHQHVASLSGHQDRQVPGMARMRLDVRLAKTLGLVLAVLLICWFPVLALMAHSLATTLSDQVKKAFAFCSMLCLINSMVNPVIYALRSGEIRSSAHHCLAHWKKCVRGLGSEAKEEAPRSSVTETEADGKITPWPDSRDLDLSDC", "conditions": "cited from earlier work"}, "[9]": {"tested_on": "TNFα, IL-6, IL-4, IL-13, IL-10, and IL-5", "conditions": "asthma induced animals treated with Cannabidiol vs asthma induced animals; cited from earlier work"}},
  "note": "Several values for one entry are separate records, joined by “and”; a condition that tells them apart may be missing. Identical values can stand only once.",
  "data": [
    {"smiles": "CCCc1cc(O)c2c(c1)OC(C)(C)[C@@H]1CC=C(C)C[C@@H]21", "note": "[delta 8-tetrahydrocannabivarin]", "values": [
      {"measurement": "BrdU incorporation relative to untreated cells", "setting": "[1]", "value": "less reduction"}
    ]},
    {"smiles": "C=C(C)[C@@H]1CCC(C)=C[C@H]1c1c(O)cc(CCCCC)cc1O", "note": "[Cannabidiol, 2-[(1R,6R)-3-Methyl-6-(1-methylethenyl)-2-cyclohexen-1-yl]-5-pentyl-1,3-benzenediol]", "values": [
      {"measurement": "mean BrdU incorporation lower than in cells expressing Orf8 but untreated with cannabinoids", "setting": "[2]", "value": "37.28% and 43.52%"},
      {"measurement": "mean BrdU incorporation lower than in cells expressing Orf10 but untreated with cannabinoids", "setting": "[1]", "value": 30.44, "unit": "%"},
      {"measurement": "mean BrdU incorporation lower than in cells expressing M protein but untreated with cannabinoids", "setting": "[3]", "value": 37.28, "unit": "%"},
      {"measurement": "early apoptosis (pSIVA)", "setting": "[4]", "value": "do not show any significant increase"},
      {"measurement": "late apoptosis (propidium iodide)", "setting": "[4]", "value": "do not show any significant increase"},
      {"measurement": "early apoptosis (pSIVA)", "setting": "[4]; listed as CBD", "value": "did not alter"},
      {"measurement": "late apoptosis (propidium iodide)", "setting": "[4]; listed as CBD", "value": "did not alter"},
      {"measurement": "early apoptosis (pSIVA)", "setting": "[5]; vs vehicle-treated ORF8 cells and vs Cannabidiol-treated control vector cells (FIG. 8A)", "value": "significant increases"},
      {"measurement": "late apoptosis (propidium iodide)", "setting": "[5]; vs vehicle-treated ORF8 cells and vs Cannabidiol-treated control vector cells (FIG. 8B)", "value": "significant increases"},
      {"measurement": "early apoptosis (pSIVA)", "setting": "[6]; relative to M protein cells treated only with vehicle (FIG. 15A)", "value": "significantly elevated"},
      {"measurement": "late apoptosis (propidium iodide)", "setting": "[6]; relative to M protein cells treated only with vehicle (FIG. 15B)", "value": "significantly elevated"},
      {"measurement": "OAS1 gene expression", "setting": "[7]; M protein, 1 μM CBD vs vehicle-treated cells, 24 hours (FIG. 18)", "value": "significantly greater expression"},
      {"measurement": "INF-lambda 1 expression", "setting": "[7]; M-protein, 1 μM CBD, 24 hours (FIG. 16A)", "value": "induced"},
      {"measurement": "INF-lambda 2/3 expression", "setting": "[7]; M-protein, 1 μM CBD, 24 hours (FIG. 16B)", "value": "induced"},
      {"measurement": "IFIT1 augmentation compared with cells expressing control plasmid", "setting": "[7]; M-protein, 1 μM CBD, 24 hours (FIG. 19)", "value": "lower"},
      {"measurement": "Mx1 gene expression", "setting": "[7]; M-protein, 1 μM CBD, 24 hours, vs Cannabidiol-treated cells expressing only control plasmid (FIG. 17)", "value": "significantly greater extent"},
      {"measurement": "change in Type I interferons as a result of CBD treatment", "setting": "Type I interferons", "value": "not much change"},
      {"measurement": "cell death", "setting": "[8]", "value": "decreases cell death"},
      {"measurement": "cell death", "setting": "normal cells", "value": "no effect"},
      {"measurement": "apoptosis and oxidative stress", "setting": "HT22 hippocampal neurons", "value": "significantly attenuated"},
      {"measurement": "binding to CB2 receptor", "setting": "CB2 receptor", "value": "very weakly"},
      {"measurement": "levels of all cytokines (TNFα, IL-6, IL-4, IL-13, IL-10, IL-5)", "setting": "[9]", "value": "reduced significantly"}
    ]}
  ]
}
